A value given as a limit tells only on which side of the number the result lay.

This assay deals with PAXF1657 control empty vector cell line. Description: 7-day proliferation assay, PAXF1657 control empty vector cell line (Example 9). Type of assay: cell-based. Particulars: 168 h; Cell Line: PAXF1657 empty vector (EV) cell line; 7-day; read-out: C: 7-day proliferation assay: IC50 GeoMean. The procedure: In order to identify compounds specific for GRK2, we generated two isogenic cell line pairs of the pancreatic cancer cell line PAXF1657, a pair of cells stably overexpressing GRK2 cDNA or the control empty vector and a cell line pair of PAXF1657 GRK2 knockout clonal cells versus non-targeting control clonal cells.
Proliferation Assay: Cellular anti-proliferative activity of compounds was assessed by using the pancreatic cancer cell line, PAXF1657, stably overexpressing GRK2 cDNA or the control empty vector, as well as the parental urinary bladder cancer cell line, 5637. In addition, we also took advantage of GRK2 knockout cell lines that were generated via CRISPR. Cell lines were seeded into tissue culture treated, white-walled, 96-well plates at a density of 500 cells/well in RPMI1640 media supplemented with 10% H.I. FBS and penicillin/streptomycin. Plates were incubated overnight at 37° C., 5% CO2 to allow cells to adhere to the wells. GRK2 inhibitors were added to the cells using a 10-point dilution series with a final concentration ranging from 30 μM-0.0002 μM in 0.3% DMSO. At the time of compound addition, a set of plates, that were not treated with compounds, were collected and cell viability was measured using CellTiter-Glo (Promega). CellTiter-Glo reagent was added to the designed plates and luminescence was measuring using a Biotek Synergy plate reader. The compound treated cells were incubated for 3 days at 37° C., 5% CO2. The media was then aspirated from each well and replaced with fresh media containing GRK2 inhibitors. The compound treated cells were then incubated for an additional 4 days at 37° C., 5% CO2. Cell viability was assessed and at end of the 7-day compound treatment by CellTiterGlo.
`Cn1c(CNc2cccc(C(=O)NCc3ccccc3C(F)(F)F)c2)nnc1-c1ccncn1`: the IC50 was found to be 1.15 µM.

As for `CCOc1ncccc1CNC(=O)c1cccc(NCc2nnc(-c3ccncn3)n2C)c1`, the IC50 is 3.61 µM.

`C[C@H](NC(=O)c1cccc(NCc2nnc(-c3ccncn3)n2C)c1)c1ccccn1`: the IC50 turned out to be 2.58 µM.

Turning to `Cn1c(CNc2cccc(C(=O)NCc3cncs3)c2)nnc1-c1ccncn1`, the IC50 is more than 10 µM.

`Cc1cccc(CNC(=O)c2cccc(NCc3nnc(-c4ccncn4)n3C)c2)n1`: the IC50 was 3.92 µM.

On to `Cn1cc(C(C)(C)NC(=O)c2cccc(NCc3nnc(-c4ccncn4)n3C)c2)cn1`, for which the IC50 was more than 10 µM.

For `Cc1csc(C(C)(C)NC(=O)c2cccc(NCc3nnc(-c4ccncn4)n3C)c2)n1`, the IC50 was more than 10 µM.

On to `CC[C@H](NC(=O)c1cccc(NCc2nnc(-c3ccncn3)n2C)c1)c1ccccn1`, for which the IC50 is more than 10 µM.

Consider `COCc1cccc(CNC(=O)c2cccc(NCc3nnc(-c4ccncn4)n3C)c2)c1`, for which the IC50 worked out at 2.53 µM.

Turning to `Cn1c(CNc2cccc(C(=O)NCc3ccccc3-n3cncn3)c2)nnc1-c1ccncn1`, the IC50 is more than 10 µM.

Consider `CCn1nc(C)c(CNC(=O)c2cccc(NCc3nnc(-c4ccncn4)n3C)c2)n1`, for which the IC50 was found to be 0.555 µM.

For `Cn1nccc1C(NC(=O)c1cccc(NCc2nnc(-c3ccncn3)n2C)c1)c1ccccc1` (stereo not shown), the IC50 is more than 10 µM.

With `CC(C)n1ncnc1CNC(=O)c1cccc(NCc2nnc(-c3ccncn3)n2C)c1`, the IC50 was more than 10 µM.

For the compound `C[C@H](NC(=O)c1cccc(NCc2nnc(-c3ccncn3)n2C)c1)c1ncccc1F`, the IC50 was 0.738 µM.

On to `CC(C)n1nccc1CNC(=O)c1cccc(NCc2nnc(-c3ccncn3)n2C)c1`, for which the IC50 is more than 10 µM.

Regarding `COc1ccccc1C1(NC(=O)c2cccc(NCc3nnc(-c4ccncn4)n3C)c2)CC1`, the IC50 is more than 10 µM.

As to `Cn1c(CNc2cccc(C(=O)NCc3nc(C4CC4)cs3)c2)nnc1-c1ccncn1`, the IC50 was 2.6 µM.

On to `CC(NC(=O)c1cccc(NCc2nnc(-c3ccncn3)n2C)c1)c1ccon1` (stereo not shown), for which the IC50 was more than 10 µM.

As to `Cn1c(CNc2cccc(C(=O)NCc3cncc(F)c3)c2)nnc1-c1ccncn1`, the IC50 is more than 10 µM.

Take `CCN(CC)Cc1ccccc1CNC(=O)c1cccc(NCc2nnc(-c3ccncn3)n2C)c1`: the IC50 was more than 10 µM.

For `CC(C)C(NC(=O)c1cccc(NCc2nnc(-c3ccncn3)n2C)c1)c1nncn1C` (stereo not shown), the IC50 was more than 10 µM.

In the case of `CC(C)Oc1ncccc1CNC(=O)c1cccc(NCc2nnc(-c3ccncn3)n2C)c1`, the IC50 was 2.36 µM.

In the case of `Cn1c(CNc2cccc(C(=O)NCc3ccn(C4CCCC4)n3)c2)nnc1-c1ccncn1`, the IC50 was more than 10 µM.

With `CC(C)Cn1nccc1CNC(=O)c1cccc(NCc2nnc(-c3ccncn3)n2C)c1`, the IC50 was 2.01 µM.

For the compound `Cn1c(CNc2cccc(C(=O)NCc3cc(C(C)(C)C)ccn3)c2)nnc1-c1ccncn1`, the IC50 was determined as 2.67 µM.

For `COc1ccc(CNC(=O)c2cccc(NCc3nnc(-c4ccncn4)n3C)c2)nc1`, the IC50 is more than 10 µM.

With `CCN(CC)C(=O)C(NC(=O)c1cccc(NCc2nnc(-c3ccncn3)n2C)c1)c1ccccc1` (stereo not shown), the IC50 was more than 10 µM.

On to `Cn1c(CNc2cccc(C(=O)NCc3ccccn3)c2)nnc1-c1ccncn1`, for which the IC50 was more than 10 µM.

Regarding `Cc1cc(CNC(=O)c2cccc(NCc3nnc(-c4ccncn4)n3C)c2)ccn1`, the IC50 is more than 10 µM.

Regarding `Cn1c(CNc2cccc(C(=O)NC3(c4ccccn4)CC3)c2)nnc1-c1ccncn1`, the IC50 was 2.03 µM.

`COc1ccc2c(c1)OCC[C@@H]2NC(=O)c1cccc(NCc2nnc(-c3ccncn3)n2C)c1`: the IC50 was found to be 10.1 µM.

In the case of `COc1ccccc1[C@@H](NC(=O)c1cccc(NCc2nnc(-c3ccncn3)n2C)c1)c1nccn1C`, the IC50 amounted to 78.2 µM.

Regarding `[2H]C([2H])(Nc1cccc(C(=O)N[C@@H]2COCc3ccccc32)c1)c1nnc(-c2ccncn2)n1C`, the IC50 was found to be 0.116 µM.

For `[2H]C([2H])(Nc1cccc(C(=O)N[C@@H]2CCOc3cccnc32)c1)c1nnc(-c2ccncn2)n1C`, the IC50 came out at 0.274 µM.
